Residues, ends and D or L forms follow the SMILES beside them.
Assay: Absorption experiment of NLPL in rats (blood LC-MS/MS)
Type: in vivo
Details: SD rats, intragastric 50 mg/kg bw
Protocol: In this research, SD rats are used and divided into three groups: a normal group and sturgeon NLPL (SEQ ID NO: 9) groups (50 mg/kg bw of daily dosage). At 12 h before the experiment, the rats are fasted but allowed to drink water. At 15 min, 45 min, 90 min, 180 min and 360 min after intragastric administration, all rats are anesthetized with 3% pentobarbital sodium, subjected to blood sampling through the abdominal aorta, and then euthanized. The polypeptide samples are prepared by solid phase synthesis and desalted.
• (1) The required samples are taken out, thawed, and mixed uniformly by vortex. • (2) 40 μL of sample is taken from the mixed sample, added with 120 μL of methanol, then shaken for 10 min, and centrifuged at low temperature for 10 min. • (3) 70 μL of supernatant is taken out from the centrifuged sample for subsequent determination. 4.2.2.2 Preparation of Standard Solution
Chromatographic separation is performed by using Waters ACQUITY UPLC I-CLASS ultra-high performance liquid chromatography equipment. Specific conditions are as follows: chromatographic column: Waters UPLC HSS T3 (1.8 μm, 2.1 mm×100 mm)—mobile phase: phase A (water, 0.1% formic acid), phase B (methanol)—flow rate: 0.3 mL/min-injection volume: 5.0 μL-column temperature: 40° C.—single sample analysis time: 8 min.
Mass spectrometric detection is performed by using Waters XEVO TQ-XS series four-pole mass spectrometer. Specific conditions are as follows: positive ion source voltage: 3.0 kV-cone well voltage: 30 V-solvent removal temperature: 500° C.—solvent removal gas flow rate: 1000 L/h-cone well gas flow rate: 150 L/h.
Data are expressed in the form of Mean±SD. Data processing and significance analysis are performed by Graphpad. P<0.05 and P<0.01 indicate significant difference and extremely significant difference in data. The target peak area in the polypeptide metabolism data is calculated by using TargetLynx software, and an allowable error of retention time is 15 s. The calculation of concentration is based on a standard curve method to obtain quantitative results.

time at which NLPL content in the blood reaches a maximum: ≤ 45 min
AUC (rat, blood, po, during the measurement time (to 360 min)): 7.14 ng·h/mL
Cmax (rat, blood, po, read-out: maximum NLPL content in the blood): 1.65 ± 1.75 ng/mL
SMILES: CC(C)C[C@H](NC(=O)[C@@H]1CCCN1C(=O)[C@H](CC(C)C)NC(=O)[C@@H](N)CC(N)=O)C(=O)O [NLPL] (H-NLPL-OH; N-terminus and C-terminus assumed)

Source: patent US12331136B2, “Anti-aging sturgeon roe tetrapeptide and preparation method and application thereof” (Shenzhen Porshealth Bioengineering Co., Ltd., priority 2023, dated 2025)
